Assays:
[1] = system: ES-2, HEY, A2780 mock and CSPG4 knockout cells; experiment: Cisplatin cytotoxicity assay (MTS); format: cell-based, human; details: CSPG4 knockout vs mock, three cell lines (A2780, HEY, ES-2), 96 hours of treatment
Source text: FIGS. 5A-5G. CSPG4 knockout results in significant loss of invasive capacity and cisplatin resistance in multiple ovarian tumor cell lines. Invasion assays using control (Mock) and CSPG4 knockout (CRISPR) HEY cells (FIG. 5A) or A2780 cells (FIG. 5B). Bars represent the total number of invading cells from five random fields/well from triplicate wells, +/−S.D., from three replicate experiments, n=6. P values determined by student's t-test with Welch's correction. […] Lanes: 1—ES-2 Parent, 2—ES-2 Mock, 3—ES-2 CSPG4 knockout, 4—ES-2 CSPG4 Rescue. […] Invasive capacity is rescued in the ES-2 CRISPR knockout line with CSPG4 re-expression (Rescue). P values determined by student's t-test with Welch's correction. FIGS. 5E-G show the cell viability of mock and knockout (CRISPR) A2780 cells (FIG. 5E), mock and knockout HEY cells (FIG. 5F), and mock, knockout and rescue ES-2 cells (FIG. 5G) treated with increasing concentrations of cisplatin. Dose response curves were plotted as the percent of MTS staining vs. untreated cells for each cell line +/−s.e.m. from three replicate experiments (n=9). The phenotype was rescued by re-expression of CSPG4 in the ES-2 CRISPR cells (ES-2 Rescue, in FIG. 5G).
Cisplatin cytotoxicityAssay: Cisplatin stock (3.3 mM) was diluted with growth medium to the required concentrations before each experiment. […] Absorbance at 570 nm was collected on a Tecan 200 plate reader. […]

[2] = system: ZEB1 expression in HEY cells; experiment: Western blot for pFAK, FAK and ZEB1 after FAK inhibitor treatment; format: cell-based, human; details: normal growth medium, 24 hours, vs DMSO
Protocol: FIGS. 9A-9J. CSPG4 expression is associated with epithelial-to-mesenchymal plasticity, mediated by CSPG4 associated changes in ZEB1 expression. FIG. 9A) The indicated cell lines both Mock(M) and CRISPR(C) were cultured separately in spheroid formation assays for 7 days, collected and analyzed by western blot for various EMT markers. FIG. 9B) Western blot for Zebl and CSPG4 expression in EOC cell lines treated with siRNA for ZEB1 or control for 48 hours. FIG. 9C) Western blot for pFAK, FAK and ZEB1 in HEY cells treated with either DMSO (control) or FAK inhibitor PND-1186 at the indicated concentrations in normal growth medium for 24 hours. FIG. 9D) Spheroid formation in methylcellulose of EOC cell lines treated with siRNA to ZEB1 or control for 7 days. Bars represent spheroid counts from five random fields/well from triplicate wells+/−S.D. *p<0.02 by students t-test with Welch's correction. n=3 from 3 individual experiments. FIG. 9E) Invasion assay of EOC cells treated with ZEB1 siRNA or control siRNA (methods). *p<0.002 by student's t-test with Welch's correction. n=3 from 3 individual experiments. FIGS. 9F and 9G) Cells were transfected with control or ZEB1 siRNA overnight and plated in the cisplatin cytotoxicity assay the following day. MTS data was collected after 4 days of cisplatin treatment. […]

N.N.[Cl][Pt][Cl] [cisplatin, Cisplatin]
reduction in the IC50 for the knockout cell lines [1]: 3.6-to-8.8 fold

CNC(=O)c1ccccc1Nc1cc(Nc2ccc(N3CCOCC3)cc2OC)ncc1C(F)(F)F [PND-1186]
ZEB1 expression [2]: inhibited

Reference: patent US20250313648A1, “Binders of Chondroitin Sulfate Proteoglycan (CSPG4) Polypeptides” (Regents of the University of Minnesota, priority 2021, published 2025)
